Test results published in PubChem BioAssay AID1259407 (Chemical Carcinogenesis Research Information System (CCRIS), 2018).
Active and inactive are the calls of the source. The rule behind the calls is not given here.

Tested on: CCRIS mutagenicity, Ames/micronucleus/aberration tests
Experiment: CCRIS mutagenicity studies
[1] = Test System: AMES SALMONELLA TYPHIMURIUM, Strain/Indicator: TA100, Metabolic Activation: NONE, Method: PREINCUBATION

Question: CC(=O)OC(C)CN(CC(C)OC(C)=O)N=O (stereo not drawn) was tested. Which mutagenic call (Test System: AMES SALMONELLA TYPHIMURIUM, Strain/Indicator: TA100, Metabolic Activation: HAMSTER, LIVER, S-9, 3-METHYLCHOLANTHRENE, Method: PREINCUBATION) did it give?
Answer: The mutagenic call was “active; positive”.

Question: What about the mutagenic call (Test System: AMES SALMONELLA TYPHIMURIUM, Strain/Indicator: TA100, Metabolic Activation: HAMSTER, LIVER, S-9, PHENOBARBITAL, Method: PREINCUBATION) of the same compound?
Answer: Its mutagenic call is “active; positive”.

Question: What about the mutagenic call (Test System: AMES SALMONELLA TYPHIMURIUM, Strain/Indicator: TA100, Metabolic Activation: HAMSTER, LIVER, S-9, Method: PREINCUBATION) of the same compound?
Answer: The mutagenic call was “active; positive”.

Question: And the mutagenic call (Test System: AMES SALMONELLA TYPHIMURIUM, Strain/Indicator: TA100, Metabolic Activation: HUMAN, LIVER, S-9, Method: PREINCUBATION)?
Answer: The mutagenic call was “inactive; negative”.

Question: What about the mutagenic call (Test System: AMES SALMONELLA TYPHIMURIUM, Strain/Indicator: TA100, Metabolic Activation: MONKEY, LIVER, S-9, Method: PREINCUBATION) of the same compound?
Answer: Its mutagenic call is “active; positive”.

Question: And the mutagenic call (Test System: AMES SALMONELLA TYPHIMURIUM, Strain/Indicator: TA100, Metabolic Activation: MOUSE, LIVER, S-9, 3-METHYLCHOLANTHRENE, Method: PREINCUBATION)?
Answer: Its mutagenic call is “active; positive”.

Question: And the mutagenic call (Test System: AMES SALMONELLA TYPHIMURIUM, Strain/Indicator: TA100, Metabolic Activation: MOUSE, LIVER, S-9, PHENOBARBITAL, Method: PREINCUBATION)?
Answer: Its mutagenic call is “active; positive”.

Question: What about the mutagenic call (Test System: AMES SALMONELLA TYPHIMURIUM, Strain/Indicator: TA100, Metabolic Activation: MOUSE, LIVER, S-9, Method: PREINCUBATION) of the same compound?
Answer: Its mutagenic call is “active; positive”.

Question: And the mutagenic call [1]?
Answer: Its mutagenic call is “inactive; negative”.

Question: What about the mutagenic call (Test System: AMES SALMONELLA TYPHIMURIUM, Strain/Indicator: TA100, Metabolic Activation: RABBIT, LIVER, S-9, Method: PREINCUBATION) of the same compound?
Answer: The mutagenic call was “active; positive”.

Question: What about the mutagenic call (Test System: AMES SALMONELLA TYPHIMURIUM, Strain/Indicator: TA100, Metabolic Activation: RAT, LIVER, CYTOSOL, PCB, Method: PREINCUBATION) of the same compound?
Answer: The mutagenic call was “inactive; negative”.

Question: And the mutagenic call (Test System: AMES SALMONELLA TYPHIMURIUM, Strain/Indicator: TA100, Metabolic Activation: RAT, LIVER, MICROSOMES AND CYTOSOL, PCB, Method: PREINCUBATION)?
Answer: Its mutagenic call is “active; positive”.

Question: And the mutagenic call (Test System: AMES SALMONELLA TYPHIMURIUM, Strain/Indicator: TA100, Metabolic Activation: RAT, LIVER, MICROSOMES AND G6PDH, PCB, Method: PREINCUBATION)?
Answer: Its mutagenic call is “active; positive”.

Question: And the mutagenic call (Test System: AMES SALMONELLA TYPHIMURIUM, Strain/Indicator: TA100, Metabolic Activation: RAT, LIVER, MICROSOMES, PCB, Method: PREINCUBATION)?
Answer: Its mutagenic call is “active; positive”.

Question: And the mutagenic call (Test System: AMES SALMONELLA TYPHIMURIUM, Strain/Indicator: TA100, Metabolic Activation: RAT, LIVER, S-9 (HEATED), PCB, Method: PREINCUBATION)?
Answer: The mutagenic call was “inactive; negative”.

Question: What about the mutagenic call (Test System: AMES SALMONELLA TYPHIMURIUM, Strain/Indicator: TA100, Metabolic Activation: RAT, LIVER, S-9, 3-METHYLCHOLANTHRENE, Method: PREINCUBATION) of the same compound?
Answer: The mutagenic call was “active; positive”.

Question: What about the mutagenic call (Test System: AMES SALMONELLA TYPHIMURIUM, Strain/Indicator: TA100, Metabolic Activation: RAT, LIVER, S-9, PCB, Method: PREINCUBATION) of the same compound?
Answer: The mutagenic call was “active; positive”.

Question: And the mutagenic call (Test System: AMES SALMONELLA TYPHIMURIUM, Strain/Indicator: TA100, Metabolic Activation: RAT, LIVER, S-9, PHENOBARBITAL, Method: PREINCUBATION)?
Answer: Its mutagenic call is “active; positive”.

Question: What about the mutagenic call (Test System: AMES SALMONELLA TYPHIMURIUM, Strain/Indicator: TA100, Metabolic Activation: RAT, LIVER, S-9, Method: PREINCUBATION) of the same compound?
Answer: The mutagenic call was “active; positive”.

Question: And the mutagenic call (Test System: AMES SALMONELLA TYPHIMURIUM, Strain/Indicator: TA100, Metabolic Activation: RAT, LIVER, S-9 WITHOUT NADP+, PCB, Method: PREINCUBATION)?
Answer: The mutagenic call was “inactive; negative”.

Question: And the mutagenic call (Test System: AMES SALMONELLA TYPHIMURIUM, Strain/Indicator: TA100, Method: PREINCUBATION)?
Answer: The mutagenic call was “active; positive”.

Question: And the mutagenic call (Test System: CHINESE HAMSTER V-79, Strain/Indicator: V-79/OUABAIN, Metabolic Activation: HAMSTER, HEPATOCYTES, Method: CELL-MEDIATED)?
Answer: Its mutagenic call is “active; positive”.

Question: With COc1ccc2cc3c4c(cc(OC)c(OC)c4c2c1)CCN3C as the compound, how does the mutagenic call (Test System: AMES SALMONELLA TYPHIMURIUM, Strain/Indicator: TA100, Metabolic Activation: RAT, LIVER, S-9, PHENOBARBITAL AND BETA-NAPHTHOFLAVONE, Method: PREINCUBATION) read?
Answer: The mutagenic call was “inactive; negative”.

Question: O=C(O)C1=C/C(=N\Nc2ccc(-c3ccc(N=Nc4ccc(N/N=C5\C=CC(=O)C(C(=O)O)=C5)c5cc(S(=O)(=O)O)ccc45)cc3)cc2)C=CC1=O was tested. Which mutagenic call (Test System: AMES SALMONELLA TYPHIMURIUM, Strain/Indicator: TA98, Metabolic Activation: HAMSTER, LIVER, S-9, Method: PREINCUBATION (PRIVAL METHOD)) did it give?
Answer: The mutagenic call was “active; positive”.

Question: Which results are given for O=[N+]([O-])C1CCCC1?
Answer: mutagenic call [1]: inactive; negative; mutagenic call (Test System: AMES SALMONELLA TYPHIMURIUM, Strain/Indicator: TA100, Metabolic Activation: RAT, LIVER, S-9, AROCLOR, Method: PREINCUBATION): active; positive; mutagenic call (Test System: AMES SALMONELLA TYPHIMURIUM, Strain/Indicator: TA102, Metabolic Activation: NONE, Method: PREINCUBATION): inactive; negative; mutagenic call (Test System: AMES SALMONELLA TYPHIMURIUM, Strain/Indicator: TA102, Metabolic Activation: RAT, LIVER, S-9, AROCLOR, Method: PREINCUBATION): inactive; negative; mutagenic call (Test System: UDS RAT HEPATOCYTES, Strain/Indicator: THY INCORP, Metabolic Activation: NONE): active; positive

Question: Cc1c(/C=N/OCc2cccc([N+](=O)[O-])c2)c2cc([N+](=O)[O-])ccc2n1Cc1ccccc1 was tested. Which mutagenic call (Test System: AMES SALMONELLA TYPHIMURIUM, Strain/Indicator: TA98, Metabolic Activation: NONE, Method: STANDARD PLATE) did it give?
Answer: The mutagenic call was “active; positive”.

Question: And the mutagenic call (Test System: AMES SALMONELLA TYPHIMURIUM, Strain/Indicator: TA98, Metabolic Activation: RAT, LIVER, S-9, PHENOBARBITAL AND BETA-NAPHTHOFLAVONE, Method: STANDARD PLATE)?
Answer: The mutagenic call was “active; positive”.

Question: And the mutagenic call (Test System: AMES SALMONELLA TYPHIMURIUM, Strain/Indicator: TA100, Metabolic Activation: NONE, Method: STANDARD PLATE)?
Answer: The mutagenic call was “active; positive”.

Question: What about the mutagenic call (Test System: AMES SALMONELLA TYPHIMURIUM, Strain/Indicator: TA100, Metabolic Activation: RAT, LIVER, S-9, PHENOBARBITAL AND BETA-NAPHTHOFLAVONE, Method: STANDARD PLATE) of the same compound?
Answer: The mutagenic call was “active; positive”.
